Reference: the supplement of paper PMC5908809

Tests used:
Test in all cases: relative IC50 (inflection point of fitted viability curve, relative to fitted max inhibition); higher = less sensitive
Conditions in all cases: 72 h
[1] = system: DERL-7 (IL-2 2.5 ng/mL)
Description: (§1)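 Drug sensitivity and resistance testing: 5 concentrations over a 10,000-fold range, 72 h at 37 °C, viability by CellTiter-Glo normalised to DMSO and benzethonium chloride controls. IC50 is the inflection point of a logistic fit (min fixed at 0, max fitted), so it is relative to the fitted maximal inhibition. Kept only where fitted max inhibition is at least 50%.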

[2] = system: KAI3 (IL-2 2.5 ng/mL)
Description: as §1

[3] = system: NK-YS (IL-2 2.5 ng/mL)
Description: as §1

[4] = system: NKL (IL-2 2.5 ng/mL)
Description: as §1

[5] = system: SNK-6 (IL-2 2.5 ng/mL)
Description: as §1

[6] = system: YT (IL-2 2.5 ng/mL)
Description: as §1

[7] = system: IMC-1 (IL-2 20 ng/mL)
Description: as §1

[8] = system: KHYG-1 (IL-2 2.5 ng/mL)
Description: as §1

[9] = system: NK-92 (IL-2 2.5 ng/mL)
Description: as §1

Row | Compound | relative IC50 [1] | relative IC50 [2] | relative IC50 [3] | relative IC50 [4] | relative IC50 [5] | relative IC50 [6] | relative IC50 [7] | relative IC50 [8] | relative IC50 [9]
1 | CN(C)C1CCN(C(=O)c2ccc(NC(=O)Nc3ccc(-c4nc(N5CCOCC5)nc(N5CCOCC5)n4)cc3)cc2)CC1 [Gedatolisib] | 27.4 nM | 85.9 nM | 32.5 nM | 14.7 nM | 75.6 nM | 147 nM | – | – | –
2 | CO[C@H]1C[C@@H]2CC[C@@H](C)[C@@](O)(O2)C(=O)C(=O)N2CCCC[C@H]2C(=O)O[C@H]([C@H](C)C[C@@H]2CC[C@@H](OP(C)(C)=O)[C@H](OC)C2)CC(=O)[C@H](C)/C=C(\C)[C@@H](O)[C@@H](OC)C(=O)[C@H](C)C[C@H](C)/C=C/C=C/C=C/1C [Ridaforolimus] | 1.04 nM | – | 0.4 nM | 0.18 nM | 0.53 nM | – | > 100 nM | 9.75 nM | –
3 | CS(=O)(=O)c1ccc(-c2cnc(N)c(C(=O)Nc3ccccc3)n2)cc1 [VE-821] | 1540 nM | 332 nM | – | – | 795 nM | – | 2660 nM | 1550 nM | –
4 | Cn1cnc2c(F)c(Nc3ccc(Br)cc3F)c(C(=O)NOCCO)cc21 [Binimetinib] | – | – | – | 19.6 nM | > 1000 nM | – | – | – | –
5 | CS(=O)(=O)c1ccc(C(=O)Nc2ccc(Cl)c(-c3ccccn3)c2)c(Cl)c1 [Vismodegib] | – | – | – | – | – | – | – | – | 1400 nM
6 | CC1(C)CNc2cc(NC(=O)c3cccnc3NCc3ccncc3)ccc21 [Motesanib] | – | – | – | – | > 10000 nM | – | – | – | –
7 | Cn1cc(-c2cnn3c(N)c(Br)c([C@@H]4CCCNC4)nc23)cn1 [MK-8776] | 539 nM | 337 nM | 668 nM | 372 nM | – | – | – | 311 nM | 750 nM
8 | CCn1cc(-c2ccnc3[nH]c(-c4cccc(CN(C)C)c4)cc23)c(-c2ccc(NC(=O)N(C)C)cc2)n1 | 17.6 nM | – | 12.3 nM | – | 4.21 nM | – | 158 nM | 39.7 nM | –
9 | C[C@]1(O)C[C@@H](c2nc(-c3ccc4ccc(-c5ccccc5)nc4c3)c3c(N)nccn32)C1 [Linsitinib] | – | – | – | – | – | – | > 10000 nM | – | –
10 | O=c1[nH]cc(F)c(=O)[nH]1 [Fluorouracil] | 2490 nM | – | 1040 nM | 1230 nM | 1190 nM | 820 nM | – | 2010 nM | 526 nM
11 | O=C(c1ccc(OCCN2CCCCC2)cc1)c1c(-c2ccc(O)cc2)sc2cc(O)ccc12 [Raloxifene] | 1740 nM | 2770 nM | – | 1680 nM | 4500 nM | 3070 nM | – | 1740 nM | 3290 nM
12 | Nc1ncn([C@H]2C[C@H](O)[C@@H](CO)O2)c(=O)n1 [Decitabine] | 436 nM | 26.9 nM | 474 nM | – | 31.8 nM | – | – | 678 nM | 392 nM
13 | COc1cc(N2CCC(N3CCN(C)CC3)CC2)ccc1Nc1ncnc(Nc2ccccc2S(=O)(=O)C(C)C)n1 [ASP3026] | 3110 nM | – | – | – | – | 1830 nM | 3350 nM | 1900 nM | –
14 | O=C(Nc1cccc(C(F)(F)F)c1)Nc1cc(S(=O)(=O)NC2CC2)ccc1-c1ccsc1 [AGI-6780] | – | – | – | – | – | – | – | – | 1390 nM
15 | CCC(C)n1ncn(-c2ccc(N3CCN(c4ccc(OCC5COC(Cn6cncn6)(c6ccc(Cl)cc6Cl)O5)cc4)CC3)cc2)c1=O (centres undefined) [Itraconazole] | 1160 nM | 1030 nM | 1080 nM | 1770 nM | 503 nM | – | – | 1300 nM | 572 nM
16 | Nc1ncn([C@@H]2O[C@H](CO)[C@@H](O)[C@H]2O)c(=O)n1 [Azacitidine] | 1440 nM | 1150 nM | 1600 nM | 3860 nM | 384 nM | – | 3620 nM | 1520 nM | 1470 nM
17 | C=CC(=O)N1CCC[C@@H](n2nc(-c3ccc(Oc4ccccc4)cc3)c3c(N)ncnc32)C1 [Ibrutinib] | – | – | – | – | – | – | > 1000 nM | – | –
